Measured values: the C3SDB collision cross section collection

Conditions: instrument: TW, calibrated with phosphatidylcholines (ESI+) and phosphatidylethanolamines (ESI-), doubly charged cardiolipins calibrated with poly-DL-…

SMILES | collision cross section (N2) ([M-H]-) | collision cross section (N2) ([M+2K]2+) | collision cross section (N2) ([M-2H]2-) | further results
CCCCCC/C=C\CCCCCCCC(=O)OC[C@H](COP(=O)(O)OCCNC(=O)CCCCCCCCCCCCCCC)OC(=O)CCCCCCCCCCCCCCCCC [AcylPE(50:1)] | 323.73 Å² |  |  | collision cross section (N2) ([M+Na]+): 330.1 Å²
CCCCCC/C=C\CCCCCCCC(=O)OC[C@H](COP(=O)(O)OC[C@@H](O)COC(=O)CCCCCCCCCCCCCCC)OC(=O)CCCCCCCCCCCCCC [AcylPG(47:1)] | 313.72 Å² |  |  | collision cross section (N2) ([M+Na]+): 326 Å²
CCCCCC/C=C\CCCCCCCC(=O)OC[C@H](COP(=O)(O)OC[C@@H](O)COC(=O)CCCCCCCCCCCCCCC)OC(=O)CCCCCCC/C=C\CCCCCCCC [AcylPG(50:2)] | 322.71 Å² |  |  | collision cross section (N2) ([M+Na]+): 333.1 Å²
CCCCCC/C=C\CCCCCCCC(=O)OC[C@H](COP(=O)(O)OC[C@@H](O)COC(=O)CCCCCCCCCCCCCCC)OC(=O)CCCCCCC/C=C\CCCCCCCCCC [AcylPG(52:2)] | 330.34 Å² |  |  | 
CCCCCC/C=C\CCCCCCCC(=O)OC[C@H](O)COP(=O)(O)OC[C@@H](COC(=O)CCCCCCC/C=C\CCCCCC)OC(=O)CCCCCCC/C=C/CCCCCCCCCC [AcylPG(52:3)] | 328.87 Å² |  |  | 
CCCCCC/C=C\CCCCCCCC(=O)OC[C@H](O)COP(=O)(O)OC[C@@H](COC(=O)CCCCCCC/C=C\CCCCCC)OC(=O)CCCCCCCC1CC1CCCCCCCCCC (some centres not stated) [AcylPG(53:3)] | 332.67 Å² |  |  | 
CCCCCC/C=C\CCCCCCCC(=O)OC(COC(=O)CCCCCCCCCCCCCCC)COP(=O)(O)OCC(O)COP(=O)(O)OCC(COC(=O)CCCCCCCCCCCCC)OC(=O)CCCCCCCCCCCCCCC (configuration not stated) [CL(62:1)] |  | 419.8 Å² |  | 
CCCCCC/C=C\CCCCCCCC(=O)OC(COC(=O)CCCCCCCCCCCCC)COP(=O)(O)OCC(O)COP(=O)(O)OCC(COC(=O)CCCCCCCCCCCCCCC)OC(=O)CCCCCCC/C=C\CCCCCC (configuration not stated) [CL(62:2)] |  | 418.5 Å² |  | 
CCCCCC/C=C\CCCCCCCC(=O)OC(COC(=O)CCCCCCCCCCCCCCC)COP(=O)(O)OCC(O)COP(=O)(O)OCC(COC(=O)CCCCCCCCCCCCCC)OC(=O)CCCCCCCCCCCCCCC (configuration not stated) [CL(63:1)] |  | 421.5 Å² | 394.72 Å² | 
CCCCCC/C=C\CCCCCCCC(=O)OC(COC(=O)CCCCCCCCCCCCCC)COP(=O)(O)OCC(O)COP(=O)(O)OCC(COC(=O)CCCCCCCCCCCCCCC)OC(=O)CCCCCCC/C=C\CCCCCC (configuration not stated) [CL(63:2)] |  | 421 Å² | 394.34 Å² | 
CCCCCC/C=C\CCCCCCCC(=O)OCC(COP(=O)(O)OCC(O)COP(=O)(O)OCC(COC(=O)CCCCCCCCCCCCCCC)OC(=O)CCCCCCC/C=C\CCCCCC)OC(=O)CCCCCCC/C=C\CCCCCC (configuration not stated) [CL(64:3)] |  |  | 397.47 Å² | 
CCCCCC/C=C\CCCCCCCC(=O)OCC(COP(=O)(O)OCC(O)COP(=O)(O)OCC(COC(=O)CCCCCCCCCCCCCCC)OC(=O)CCCCCCCC1CC1CCCCCC)OC(=O)CCCCCCC/C=C\CCCCCC (configuration not stated) [CL(65:3)] |  | 424.2 Å² | 400.07 Å² | 
CCCCCC/C=C\CCCCCCCC(=O)OC(COC(=O)CCCCCCCCCCCCCCC)COP(=O)(O)OCC(O)COP(=O)(O)OCC(COC(=O)CCCCCCCCCCCCCCC)OC(=O)CCCCCCC/C=C\CCCCCCCC (configuration not stated) [CL(66:2)] |  | 426.8 Å² | 402.26 Å² | 

Second part, led by results:

collision cross section (N2) ([M-H]-) | collision cross section (N2) ([M+2K]2+) | collision cross section (N2) ([M-2H]2-) | SMILES | further results
 | 425.7 Å² | 401.91 Å² | CCCCCC/C=C\CCCCCCCC(=O)OCC(COP(=O)(O)OCC(O)COP(=O)(O)OCC(COC(=O)CCCCCCCCCCCCCCC)OC(=O)CCCCCCC/C=C\CCCCCCCC)OC(=O)CCCCCCC/C=C\CCCCCC (configuration not stated) [CL(66:3)] | 
 |  | 401.68 Å² | CCCCCC/C=C\CCCCCCCC(=O)OCC(COP(=O)(O)OCC(O)COP(=O)(O)OCC(COC(=O)CCCCCCC/C=C\CCCCCC)OC(=O)CCCCCCC/C=C\CCCCCCCC)OC(=O)CCCCCCC/C=C\CCCCCC (configuration not stated) [CL(66:4)] | 
 | 427.9 Å² | 404.3 Å² | CCCCCCCC/C=C\CCCCCCCC(=O)OC(COC(=O)CCCCCCCCCCCCCCC)COP(=O)(O)OCC(O)COP(=O)(O)OCC(COC(=O)CCCCCCCC1CC1CCCCCC)OC(=O)CCCCCCCCCCCCCCC (configuration not stated) [CL(67:2)] | 
 |  | 407.34 Å² | CCCCCCCC/C=C\CCCCCCCC(=O)OCC(COP(=O)(O)OCC(O)COP(=O)(O)OCC(COC(=O)CCCCCCCCCCCCCCC)OC(=O)CCCCCCC/C=C\CCCCCCCC)OC(=O)CCCCCCCCCCCCCCC (configuration not stated) [CL(68:2)] | 
 |  | 407.14 Å² | CCCCCC/C=C\CCCCCCCC(=O)OC(COC(=O)CCCCCCC/C=C\CCCCCCCC)COP(=O)(O)OCC(O)COP(=O)(O)OCC(COC(=O)CCCCCCCCCCCCCCC)OC(=O)CCCCCCC/C=C\CCCCCCCC (configuration not stated) [CL(68:3)] | 
198.83 Å² |  |  | CCCCCCCCCCCCCC(=O)O[C@H](CO)COP(=O)([O-])OCC[NH3+] [LPE(0:0/14:0)] | collision cross section (N2) ([M+H]+): 208.79 Å²; collision cross section (N2) ([M+Na]+): 213.66 Å²
199.81 Å² |  |  | CCCCC1CC1CCCCCCCC(=O)O[C@H](CO)COP(=O)([O-])OCC[NH3+] (some centres not stated) [LPE(0:0/15:1)] | 
206.05 Å² |  |  | CCCCCCCCCCCCCCCC(=O)O[C@H](CO)COP(=O)([O-])OCC[NH3+] [LPE(0:0/16:0)] | collision cross section (N2) ([M+H]+): 216.39 Å²; collision cross section (N2) ([M+Na]+): 220.61 Å²
203.66 Å² |  |  | CCCCCC/C=C/CCCCCCCC(=O)O[C@H](CO)COP(=O)([O-])OCC[NH3+] [LPE(0:0/16:1)] | collision cross section (N2) ([M+H]+): 208.94 Å²; collision cross section (N2) ([M+Na]+): 212.72 Å²
